Data taken from ChEMBL document CHEMBL5385961, “In vitro and in vivo evaluation of novel chromeno[2,3-d]pyrimidinones as therapeutic agents for triple negative breast cancer” (RSC Med Chem, 2024).
Calls of active or inactive are those of the source. No cut-off for these calls is given here.

Tests used:
Hs-578T [1] = assay: Induction of apoptosis in human Hs-578T cells assessed as increase in caspase-8 protein expression at IC50 measured after 24 hrs by Western blot analysis; type: functional, cell-based
MCF7 [2] = assay: Cytotoxicity against human MCF7 cells assessed as cell viability at 10 uM incubated for 72 hrs by SRB assay relative to control; type: functional; conditions: read-out: Activity
[3] = Cytotoxicity against human MCF-10A cells assessed as inhibition of cell growth incubated for 72 hrs by SRB assay; type: toxicity, cell-based
Hs-578T [4] = assay: Induction of apoptosis in human Hs-578T cells assessed as increase in caspase-9 protein expression at IC50 measured after 24 to 48 hrs by Western blot analysis; type: functional, cell-based; conditions: time 24-48 hrs
MDA-MB-231 [5] = assay: Cytotoxicity against human MDA-MB-231 cells assessed as cell viability at 10 uM incubated for 72 hrs by SRB assay relative to control; type: functional; conditions: read-out: Activity
Hs-578T [6] = assay: Induction of apoptosis in human Hs-578T cells assessed as increase in BID protein expression at IC50 measured after 24 to 48 hrs by Western blot analysis; type: functional, cell-based; conditions: time 24-48 hrs
Hs-578T [7] = assay: Induction of apoptosis in human Hs-578T cells assessed as increase in BAD protein expression at IC50 measured after 24 to 48 hrs by Western blot analysis; type: functional, cell-based; conditions: time 24-48 hrs
Hs-578T [8] = assay: Cytotoxicity against human Hs-578T cells assessed as reduction in cell viability at 10 uM incubated for 72 hrs by SRB assay relative to control; type: functional
Hs-578T [9] = assay: Induction of apoptosis in human Hs-578T cells assessed as increase in cleaved PARP level at IC50 measured after 48 hrs by Western blot analysis; type: functional, cell-based
Homo sapiens = species: Homo sapiens; assay: Selectivity index, ratio of IC50 for human MCF-10A cells to IC50 for human Hs-578T cells
Hs-578T [10] = assay: Cytotoxicity against human Hs-578T cells assessed as cell viability at 10 uM incubated for 72 hrs by SRB assay relative to control; type: functional; conditions: read-out: Activity
MDA-MB-231 [11] = assay: Cytotoxicity against human MDA-MB-231 cells assessed as cell viability at 30 uM incubated for 72 hrs by SRB assay relative to control; type: functional; conditions: read-out: Activity
Hs-578T [12] = assay: Induction of apoptosis in human Hs-578T cells assessed as increase in caspase-8 protein expression at IC50 measured after 48 hrs by Western blot analysis; type: functional, cell-based
Hs-578T [13] = assay: Cytotoxicity against human Hs-578T cells assessed as cell viability at 30 uM incubated for 72 hrs by SRB assay relative to control; type: functional; conditions: read-out: Activity
MCF7 [14] = assay: Cytotoxicity against human MCF7 cells assessed as cell viability at 30 uM incubated for 72 hrs by SRB assay relative to control; type: functional; conditions: read-out: Activity
Hs-578T [15] = assay: Cytotoxicity against human Hs-578T cells assessed as inhibition of cell growth incubated for 72 hrs by SRB assay; type: functional, cell-based
Hs-578T [16] = assay: Cytotoxicity against human Hs-578T cells assessed as reduction in cell proliferation at IC50 measured after 48 hrs by BrdU incorporation assay relative to control; type: functional; set-up: scale not given: the % may be the effect or the level left
[17] = Toxicity in wild type Caenorhabditis elegans N2 assessed as effect on food consumption at 0.0001 to 50 uM measured daily for 7 days by food clearance assay; conditions: 168 h, dose 0.0001-50 µM, time 7 day
Hs-578T [18] = assay: Induction of apoptosis in human Hs-578T cells assessed as increase in late apoptotic cells at IC50 measured after 24 hrs by Annexin V-FITC/PI staining based flow cytometry analysis; type: functional, cell-based
Hs-578T [19] = assay: Induction of cell cycle arrest in human Hs-578T cells assessed as accumulation of cells at S phase at IC50 measured after 24 hrs by RNase/PI staining based flow cytometry analysis; type: functional
Hs-578T [20] = assay: Induction of cell cycle arrest in human Hs-578T cells assessed as reduction in G0/G1 cell population at IC50 measured after 24 to 48 hrs by RNase/PI staining based flow cytometry analysis; type: functional; conditions: time 24-48 hrs
Hs-578T [21] = assay: Induction of cell cycle arrest in human Hs-578T cells assessed as accumulation of cells at G2/M phase at IC50 measured after 24 hrs by RNase/PI staining based flow cytometry analysis; type: functional
Hs-578T [22] = assay: Antitumor activity against human Hs-578T cells implanted in chick eggs assessed as tumor growth regression at 2 times IC50 administered starting from day 13 and measured 17 days post embryo development by stereomicroscopic analysis; type: functional, cell-based; conditions: time 5.0 day
Hs-578T [23] = assay: Induction of apoptosis in human Hs-578T cells assessed as reduction in viable cells at IC50 measured after 24 to 48 hrs by Annexin V-FITC/PI staining based flow cytometry analysis; type: functional, cell-based; conditions: time 24-48 hrs
Hs-578T [24] = assay: Induction of apoptosis in human Hs-578T cells assessed as increase in cleaved PARP level at IC50 measured after 24 to 48 hrs by Western blot analysis; type: functional, cell-based; conditions: time 24-48 hrs
Hs-578T [25] = assay: Induction of cell cycle arrest in human Hs-578T cells assessed as accumulation of cells at S phase at IC50 measured after 48 hrs by RNase/PI staining based flow cytometry analysis; type: functional
Hs-578T [26] = assay: Induction of apoptosis in human Hs-578T cells assessed as increase in early apoptotic cells at IC50 measured after 24 to 48 hrs by Annexin V-FITC/PI staining based flow cytometry analysis; type: functional, cell-based; conditions: time 24-48 hrs
Hs-578T [27] = assay: Antitumor activity against human Hs-578T cells implanted in chick eggs assessed as regression in tumors' perimeter at 2 times IC50 administered starting from day 13 and measured 17 days post embryo development by stereomicroscopic analysis relative to control; type: functional; conditions: time 5 day
Hs-578T [28] = assay: Cytotoxicity against human Hs-578T cells assessed as reduction in cell proliferation at IC50 measured after 24 hrs by BrdU incorporation assay relative to control; type: functional; set-up: scale not given: the % may be the effect or the level left
Hs-578T [29] = assay: Cytotoxicity against human Hs-578T cells assessed as reduction in cell proliferation at 0.5 times IC50 measured after 24 hrs by BrdU incorporation assay relative to control; type: functional; set-up: scale not given: the % may be the effect or the level left
[30] = Toxicity in wild type Caenorhabditis elegans N2 assessed as drug tolerance at 0.0001 to 50 uM; conditions: dose 0.0001-50 µM
Hs-578T [31] = assay: Cytotoxicity against human Hs-578T cells assessed as reduction in cell proliferation at 0.5 times IC50 measured after 48 hrs by BrdU incorporation assay relative to control; type: functional; set-up: scale not given: the % may be the effect or the level left

Q: Which results are given for `COc1cccc2c1Oc1nc(-c3cc(C(C)(C)C)c(O)c(C(C)(C)C)c3)[nH]c(=O)c1C2`?
A: Activity (Hs-578T [1]): Active; viability at 10 µM (MCF7 [2]): 59.8%; IC50 at 72 h [3]: > 60 µM; Activity (Hs-578T [4]): Active; viability at 10 µM (MDA-MB-231 [5]): 68.1%; Activity (Hs-578T [6]): Active; Activity (Hs-578T [7]): Active; Activity (Hs-578T [8]): ~50%; Activity (Hs-578T [9]): Active; Ratio IC50 (Homo sapiens): > 5.61; viability at 10 µM (Hs-578T [10]): 30%; viability at 30 µM (MDA-MB-231 [11]): 58.6%; Activity (Hs-578T [12]): inactive; viability at 30 µM (Hs-578T [13]): 18.7%; viability at 30 µM (MCF7 [14]): 43.5%; IC50 (Hs-578T [15]): 9.08 µM

Q: With `O=c1[nH]c(-c2ccccc2)nc2c1Cc1cc(Br)ccc1O2` as the compound, how does the Activity (Hs-578T [1]) read?
A: Active

Q: And the viability at 10 µM (MCF7 [2])?
A: 39.2%

Q: And the IC50 at 72 h [3]?
A: > 60 µM

Q: And the Activity (Hs-578T [16])?
A: <=99%

Q: What about the Activity [17] of the same compound?
A: Non-Toxic

Q: And the Activity (Hs-578T [4])?
A: Active

Q: What about the viability at 10 µM (MDA-MB-231 [5]) of the same compound?
A: 62.4%

Q: And the Activity (Hs-578T [6])?
A: Active

Q: What about the Activity (Hs-578T [7]) of the same compound?
A: Active

Q: And the Activity (Hs-578T [18])?
A: Active

Q: And the Activity (Hs-578T [8])?
A: ~50%

Q: And the Activity (Hs-578T [19])?
A: inactive

Q: And the Activity (Hs-578T [20])?
A: Active

Q: And the Activity (Hs-578T [21])?
A: inactive

Q: And the Ratio IC50 (Homo sapiens)?
A: > 12.3

Q: What about the viability at 10 µM (Hs-578T [10]) of the same compound?
A: 40.2%

Q: What about the Activity (Hs-578T [22]) of the same compound?
A: Active

Q: What about the Activity (Hs-578T [23]) of the same compound?
A: Active

Q: And the Activity (Hs-578T [24])?
A: Active

Q: What about the viability at 30 µM (MDA-MB-231 [11]) of the same compound?
A: 52.1%

Q: And the Activity (Hs-578T [25])?
A: Active

Q: What about the Activity (Hs-578T [12]) of the same compound?
A: inactive

Q: What about the Activity (Hs-578T [26]) of the same compound?
A: Active

Q: What about the Activity (Hs-578T [27]) of the same compound?
A: 6.3%

Q: And the viability at 30 µM (Hs-578T [13])?
A: 21.1%

Q: And the Activity (Hs-578T [28])?
A: ~70%

Q: What about the Activity (Hs-578T [29]) of the same compound?
A: ~40%

Q: What about the Activity [30] of the same compound?
A: Non-Toxic

Q: And the Activity (Hs-578T [31])?
A: <=50%

Q: What about the viability at 30 µM (MCF7 [14]) of the same compound?
A: 36.7%

Q: What about the IC50 (Hs-578T [15]) of the same compound?
A: 4.5 µM
